Laboratory results: ChEMBL document CHEMBL1130738, “Rational design of boropeptide thrombin inhibitors: beta, beta-dialkyl-phenethylglycine P2 analogs of DuP 714 with greater selectivity over complement factor I and an improved safety profile” (Bioorg Med Chem Lett, 1998)
pIC50, pKi: −log10 of the molar value. Active and inactive are the calls of the source. The rule behind the calls is not given here.

Experiments:
Rattus norvegicus [1] = test: Alanine transaminase level was measured in rats after administration intravenously at a dose(bolus) of 20 umol/kg; format: functional, organism-based; design: unit not given here
Rattus norvegicus [2] = test: Effect of factor I selectivity on hypotension was evaluated in rats after administration intravenously at a dose(bolus) of 20umol/Kg, activity expressed as drop in blood pressure; No effect; format: functional, organism-based
[3] = molecular target: Thrombin and coagulation factor X (Homo sapiens) (UniProt P00734+P00742); test: Selectivity ratio for binding to factor Xa (Ki) and thrombin (Ki); format: protein assay
Prothrombin = Prothrombin (Homo sapiens, UniProt P00734); test: Binding affinity towards thrombin was tested.
Coagulation factor X = Coagulation factor X (Homo sapiens, UniProt P00742); test: Binding affinity towards coagulation factor Xa.
[4] = Inhibition of Coagulation factor I.
[5] = Selectivity ratio for binding to factor I (IC50) and thrombin (Ki)
Rattus norvegicus [6] = test: Effect of factor I selectivity on hypotension was evaluated in rats after administration intravenously at a dose(bolus) of 20umol/Kg, activity expressed as drop in blood pressure; format: functional
Rattus norvegicus [7] = test: Effect of factor I selectivity on hypotension was evaluated in rats after administration intravenously at a dose(bolus) of 2 umol/kg; format: functional

Chain of Coagulation factor X (P00742 41-179 limits assumed): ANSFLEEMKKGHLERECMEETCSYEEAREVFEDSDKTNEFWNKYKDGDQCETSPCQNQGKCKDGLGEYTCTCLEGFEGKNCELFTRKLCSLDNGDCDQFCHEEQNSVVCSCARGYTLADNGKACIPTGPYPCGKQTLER
Chain of Coagulation factor X (P00742 235-488 limits assumed): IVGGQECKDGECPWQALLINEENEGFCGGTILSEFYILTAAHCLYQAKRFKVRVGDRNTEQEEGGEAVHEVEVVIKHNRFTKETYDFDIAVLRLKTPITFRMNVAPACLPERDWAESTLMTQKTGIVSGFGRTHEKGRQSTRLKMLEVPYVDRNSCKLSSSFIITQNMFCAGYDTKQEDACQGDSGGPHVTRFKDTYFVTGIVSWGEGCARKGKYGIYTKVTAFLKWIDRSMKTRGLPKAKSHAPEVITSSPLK
Chain of Thrombin and coagulation factor X (Homo sapiens) (P00742 whole entry, looked up, other chains not shown): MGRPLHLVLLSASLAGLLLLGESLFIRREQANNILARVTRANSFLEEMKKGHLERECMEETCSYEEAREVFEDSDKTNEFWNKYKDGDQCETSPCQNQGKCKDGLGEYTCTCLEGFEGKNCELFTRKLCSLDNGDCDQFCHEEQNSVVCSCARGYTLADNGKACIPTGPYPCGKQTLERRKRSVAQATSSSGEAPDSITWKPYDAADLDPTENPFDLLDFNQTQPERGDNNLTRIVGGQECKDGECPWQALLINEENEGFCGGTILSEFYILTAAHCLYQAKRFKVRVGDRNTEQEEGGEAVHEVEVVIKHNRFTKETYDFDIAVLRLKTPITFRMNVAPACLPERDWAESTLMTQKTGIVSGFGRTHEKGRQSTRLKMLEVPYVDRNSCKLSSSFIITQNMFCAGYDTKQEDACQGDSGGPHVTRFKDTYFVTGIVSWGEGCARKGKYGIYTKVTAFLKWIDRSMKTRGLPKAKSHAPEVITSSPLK

For N=C(N)NCCCC(NC(=O)CN(CC1(c2ccccc2)CC1)C(=O)CCc1ccccc1)B(O)O (stereo unspecified), the Level (Rattus norvegicus [1]) was 89, the BP (Rattus norvegicus [2]) was “inactive” and the Ratio [3] was 767. It also gave a pKi (Prothrombin) of 10.22, a pKi (Coagulation factor X) of 7.34 and a pIC50 [4] of 6.27. It also gave a Ratio [5] of 9000.

Work on N/C=N/CCCC(NC(=O)CN(CC1(c2ccccc2)CC1)C(=O)CCc1ccccc1)B(O)O (stereo unspecified) yielded a Level (Rattus norvegicus [1]) of 66, a Ratio [3] of 361 and a pIC50 [4] of 5.11. It also gave a Ratio [5] of 9280.

Work on CC(C)(CN(CC(=O)NC(CCC/N=C/N)B(O)O)C(=O)CCc1ccccc1)c1ccccc1 (stereo unspecified) yielded a Level (Rattus norvegicus [1]) of 70, a Ratio [3] of 67 and a pIC50 [4] of 5.16. For the same compound, the Ratio [5] was 5750.

Compound CC(C)(CN(CC(=O)NC(CCCNC=N)B(O)O)C(=O)CCc1ccccc1)c1ccccc1 (stereo unspecified) has a pKi (Prothrombin) of 8.92 and a pKi (Coagulation factor X) of 7.10.

Compound CC(C)(CN(CC(=O)NC(CCCNC(=N)N)B(O)O)C(=O)CCc1ccccc1)c1ccccc1 (stereo unspecified) has a pKi (Prothrombin) of 10.22 and a pKi (Coagulation factor X) of 7.00.

CC(C)(CN(CC(=O)NC(CCCN=C(N)N)B(O)O)C(=O)CCc1ccccc1)c1ccccc1 (stereo unspecified) showed a Level (Rattus norvegicus [1]) of 211, a Ratio [3] of 1650 and a pIC50 [4] of 6.89. It also gave a Ratio [5] of 2170 and a BP (Rattus norvegicus [6]) greater than 40 mmHg.

Work on NCCCCC(NC(=O)CN(CCc1ccccc1)C(=O)CCc1ccccc1)B(O)O (stereo unspecified) yielded a Level (Rattus norvegicus [1]) of 60, a Ratio [3] of 310 and a pKi (Prothrombin) of 9.38. The pKi (Coagulation factor X) was 6.89, the pIC50 [4] was 5.82 and the Ratio [5] was 3570.

With CC(C)(CN(CC(=O)NC(CCCCN)B(O)O)C(=O)CCc1ccccc1)c1ccccc1 (stereo unspecified) the Level (Rattus norvegicus [1]) was 53, the Ratio [3] was 889 and the pKi (Prothrombin) was 9.44. It also gave a pKi (Coagulation factor X) of 6.49, a pIC50 [4] of 5.89 and a Ratio [5] of 3610.

Work on N=CNCCCC(NC(=O)CN(CC1(c2ccccc2)CC1)C(=O)CCc1ccccc1)B(O)O (stereo unspecified) yielded a pKi (Prothrombin) of 9.08 and a pKi (Coagulation factor X) of 6.52.

In the case of Cc1cc(C)cc(C(C)(C)CN(CC(=O)NC(CCCCN)B(O)O)C(=O)CCc2ccccc2)c1 (stereo unspecified), the Level (Rattus norvegicus [1]) was 78, the Ratio [3] was 1980 and the pKi (Prothrombin) was 9.39. The pKi (Coagulation factor X) was 6.09, the pIC50 [4] was 5.61 and the Ratio [5] was 5980.

Work on Cc1cc(C)cc(CCN(CC(=O)NC(CCCNC=N)B(O)O)C(=O)CCc2ccccc2)c1 (stereo unspecified) yielded a pKi (Prothrombin) of 9.43 and a pKi (Coagulation factor X) of 7.52.

In the case of NCCCCC(NC(=O)CN(CC1(c2ccccc2)CC1)C(=O)CCc1ccccc1)B(O)O (stereo unspecified), the Level (Rattus norvegicus [1]) was 60, the Ratio [3] was 1020 and the pKi (Prothrombin) was 9.37. For the same compound, the pKi (Coagulation factor X) was 6.36, the pIC50 [4] was 5.37 and the Ratio [5] was 10000.

For N=CNCCCC(NC(=O)CN(CCc1ccccc1)C(=O)CCc1ccccc1)B(O)O (stereo unspecified), the pKi (Prothrombin) was 9.05 and the pKi (Coagulation factor X) was 7.66.

Compound Cc1cc(C)cc(C(C)(C)CN(CC(=O)NC(CCCN=C(N)N)B(O)O)C(=O)CCc2ccccc2)c1 (stereo unspecified) has a Ratio [3] of 207, a pKi (Prothrombin) of 9.52 and a pKi (Coagulation factor X) of 7.21. The pIC50 [4] was 6.49 and the Ratio [5] was 1070.

With CC(=O)N[C@H](Cc1ccccc1)C(=O)N1CCC[C@H]1C(=O)N[C@@H](CCCN=C(N)N)B(O)O.Cl the pIC50 [4] was 8.00 and the BP (Rattus norvegicus [7]) was greater than 40 mmHg.

In the case of N/C=N/CCCC(NC(=O)CN(CC1(c2ccccc2)CCCC1)C(=O)CCc1ccccc1)B(O)O (stereo unspecified), the Level (Rattus norvegicus [1]) was 60, the Ratio [3] was 210 and the pIC50 [4] was less than 4.30. It also gave a Ratio [5] greater than 16700.

Compound Cc1cc(C)cc(C(C)(C)CN(CC(=O)NC(CCC/N=C/N)B(O)O)C(=O)CCc2ccccc2)c1 (stereo unspecified) has a Level (Rattus norvegicus [1]) of 70, a Ratio [3] of 740 and a pKi (Prothrombin) of 9.28. The pKi (Coagulation factor X) was 6.41, the pIC50 [4] was 5.62 and the Ratio [5] was 4510.

Cc1cc(C)cc(CCN(CC(=O)NC(CCCCN)B(O)O)C(=O)CCc2ccccc2)c1 (stereo unspecified) gave a Ratio [3] of 193, a pKi (Prothrombin) of 9.55 and a pKi (Coagulation factor X) of 7.27. For the same compound, the pIC50 [4] was 6.77 and the Ratio [5] was 607.

N=CNCCCC(NC(=O)CN(CC1(c2ccccc2)CCCC1)C(=O)CCc1ccccc1)B(O)O (stereo unspecified) showed a pKi (Prothrombin) of 8.52 and a pKi (Coagulation factor X) of 6.20.

For Cc1cc(C)cc(CCN(CC(=O)NC(CCC/N=C/N)B(O)O)C(=O)CCc2ccccc2)c1 (stereo unspecified), the Ratio [3] was 81, the pIC50 [4] was 6.40 and the Ratio [5] was 1080.

Work on N/C=N/CCCC(NC(=O)CN(CCc1ccccc1)C(=O)CCc1ccccc1)B(O)O (stereo unspecified) yielded a Level (Rattus norvegicus [1]) of 55, a Ratio [3] of 25 and a pIC50 [4] of 5.56. The Ratio [5] was 3070.

With Cc1cc(C)cc(CCN(CC(=O)NC(CCCNC(=N)N)B(O)O)C(=O)CCc2ccccc2)c1 (stereo unspecified) the pKi (Prothrombin) was 9.24 and the pKi (Coagulation factor X) was 7.82.

Cc1cc(C)cc(CCN(CC(=O)NC(CCCN=C(N)N)B(O)O)C(=O)CCc2ccccc2)c1 (stereo unspecified) gave a Ratio [3] of 26, a pIC50 [4] greater than 7.40 and a Ratio [5] of less than 69.

NCCCCC(NC(=O)CN(CC1(c2ccccc2)CCCC1)C(=O)CCc1ccccc1)B(O)O (stereo unspecified) showed a Level (Rattus norvegicus [1]) of 66, a Ratio [3] of 579 and a pKi (Prothrombin) of 8.62. The pKi (Coagulation factor X) was 5.86, the pIC50 [4] was 4.72 and the Ratio [5] was 7920.
